Experimental data: patent US20140341939A1 (NATIONAL UNIVERSITY CORPORATION KOCHI UNIVERSITY, priority 2011, published 2014)
“Also recorded” adds a separate entry of the source. Where no end group is shown, it is not given here.

Key:
[1] = tested on: serum peptidase
Description: (§1) Peptide was digested in TBS containing 10% fresh mouse serum or fresh human serum. After incubation at 37° C. for a given time, 1% trifluoro acid was added to remove various serum proteins by precipitation. After short centrifugation, the soluble fraction was analyzed by reversed-phase HPLC using a C18 analysis column. To normalize variation in the total amount of the peptide loaded for each HPLC, the peak of non-protein components contained in the serum, which is absorbed at the wavelength of 220 nm, was used as an internal control. The peak area of undigested peptides was quantitatively monitored by Chromatopac C-R8A (Shimadzu Corp., Kyoto, Japan), and the amount of the remaining peptide was calculated.
(§2) Therefore, the inventor examined the digestion resistance of peptide in vitro in a 10% fresh mouse serum. The amount of a remaining undigested peptide was quantified by HPLC.

[2] = in vitro; conditions: mouse, serum
Description: as §1, §2

[3] = tested on: Th cell; assay: In vivo immunization using modified molecule of WA36 (IFN-γ positive Th cells); parameters: species or system mouse; conditions: IFN-γ positive Th cells (FIG. 27)
[4] = tested on: EG7 tumor; assay: Antitumor activity by in vivo immunization with OVA-derived peptides (EL4 / EG7 tumor); conditions: CBF1 mouse, peptide-loaded LPS blast i.p. 3 times; EL4 / EG7 tumor (FIG. 8)
Description: CBF1 mouse was immunized with LPS blast of splenocyte pulsed with either λ repressor peptide ([…]; SEQ ID NO: 39) or OVAII peptide as a Th epitope peptide, and K^b-binding OVA-I peptide, which is a CTL inducing peptide. LPS blast derived from one spleen was pulsed with peptide, and intraperitoneally injected to immunize two mice. The next day of the third immunization, 9×10^6 EL4 cells and 1.2×10^7 EG7 cells were intradermally transplanted in a pair on the back skin of the mice. The tumor size was measured every other day. Immunization was performed once again 2 weeks from the tumor transplantation.
To verify the anti-tumor effect of inducing tumor-specific Th cells in vivo, the inventor compared the immunization protocol that induces 1. CTL alone, 2. CTL and a third party antigen-specific Th cell, and 3. CTL and tumor-specific Th cell. As the antigen presenting cell, LPS blast of spleen cell was used, and the APC loaded with each peptide alone or the mixture of each peptide was injected intraperitoneally 3 times (once per week). On the day of third immunization, 9×10^6 EL4 and 1.2×10^7 EG7 tumor were innoculated on the opposite sides of the back, and the tumor diameter was measured from day 4.

[5] = tested on: DO11.10 cells; assay: Antigen presentation by F2-IA^d vascular endothelial cells (CD69 expression by DO11.10 cells); format: cell-based, mouse
Description: EL4 cells were first opsonized with RGD peptide. Next, 5 mg/ml OVA protein was loaded on the cytoplasm by osmotic pressure loading. After sufficient washing, 2×10^6 EL4 cells were added to a confluent culture medium of F2-IA^d cells on a 24-well plate (cultured for 2 days in advance in the presence of 500 U/ml rmIFN-γ). As a control, EL4 and EG7 mock-loaded with PBS were RGD-modified in the same manner and used. EL4 and other target cells were added to F2-IA^d, and the cell mixture was cultured for 24 hr. As for the control well wherein F2-IA^d cells were directly loaded with OVAII peptide, the cells were pulsed with peptide for 2 hr at the end of the culture. After removing the non-adherent cells and debris of dead cells, the surface of the adhered F2-IA^d cells was sufficiently washed. In an antigen presentation inhibitory experiment using chloroquine, 100 μM chloroquine was added 30 min before addition of EL4, EL4 loaded with OVA or 0.25 mg/ml OVA protein. Furthermore, F2-IA^d cells were cultured for 3 days in the continuous presence of chloroquine.
Whether the F2-IA^d cells presented the target antigen polypeptide on the cell surface was evaluated by monitoring the expression of CD69 by DO11.10 cells. The antigen-presenting F2-IA^d cells and DO11.10 cells were mixed and centrifuged to contact the cells with one another. After 6 hr and 24 hr, the cells were stained with biotin-labeled anti CD69 mAb (H1.2F3, BD Biosciences), and the expression of CD69 by DO11.10 cells was detected by flow cytometry (stained positive with FITC-labeled KJ1.26 (anti clonotypic TCR mAb)).

[6] = tested on: DO11.10 cells; assay: Cell migration test through F2-IA^d cell layer (Transwell); format: cell-based, mouse
Description: F2-IA^d cells were cultured until confluence on an insert of Transwell plate (BD Labware, Billerica, Calif.). The cells were cultured in the presence of 500 U/ml rmIFN-γ for the last 3 days of culture. In addition, F2-IA^d cells were pulsed with various concentrations of OVAII peptide for the last 2 hr of culture. After the culture, F2-IA^d cells were washed and CD4^+ cells were isolated by negative selection (Dynal mouse CD4 negative isolation kit (Invitrogen)) from DO11.10 transgenic spleen cells to not less than 95% purity, which were added by 4×10^6 cells per well. The cells were incubated at 37° C., and the number of DO11.10 that migrated under the chamber in 6 hr was counted.

[7] = Degradation of peptide in 10% fresh mouse serum (HPLC of remaining peptide); conditions: mouse, 10% fresh mouse serum
Description: as §1, §2

[8] = tested on: serum peptidase; assay: as above; conditions: 10% fresh mouse serum, up to 16 hr (FIG. 21)
Description: as §1, §2

[9] = tested on: DO11.10 cells; assay: Growth of CD4 T cells: proliferation of DO11.10 cells by OVII modified peptides (3H-thymidine); format: cell-based, mouse
[10] = tested on: peptidase activity in the serum; assay: Effect of peptidase inhibitor on OVII peptide digestion by mouse serum; format: biochemical; conditions: inhibitor-containing buffer (FIGS. 22-24)
Description: Given the above-mentioned Examples, the inventor examined the effect of peptidase inhibitor on the peptide digestion to identify the peptidase in the serum.

[11] = target: T1, I-A^d molecule (Mus musculus, UniProt P01921+P04228); assay: Peptide-binding assay on CH1-IA^d cells (FITC-streptavidin, flow cytometry); conditions: CH1-IA^d cells (FIG. 17)
T1 construct: expressed in transfected cells; host or cells: CH1 cells, retroviral transduction with pMX (I-Aβ-IRES-I-Aα)
T1 sequence (P04228 24-256): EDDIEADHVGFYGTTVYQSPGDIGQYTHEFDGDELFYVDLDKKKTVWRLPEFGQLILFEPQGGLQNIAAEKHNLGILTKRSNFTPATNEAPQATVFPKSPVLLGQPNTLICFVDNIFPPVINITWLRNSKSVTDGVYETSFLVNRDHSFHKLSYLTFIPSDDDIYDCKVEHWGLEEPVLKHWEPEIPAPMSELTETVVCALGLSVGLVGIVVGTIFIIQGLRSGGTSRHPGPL
T1 sequence (P01921 28-265): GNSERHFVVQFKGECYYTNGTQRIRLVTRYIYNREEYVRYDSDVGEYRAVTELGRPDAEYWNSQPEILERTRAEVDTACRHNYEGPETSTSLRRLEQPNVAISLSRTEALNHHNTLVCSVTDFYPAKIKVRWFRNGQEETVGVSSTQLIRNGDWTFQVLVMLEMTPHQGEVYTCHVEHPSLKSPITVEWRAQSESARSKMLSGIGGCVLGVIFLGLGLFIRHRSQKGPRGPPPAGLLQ
Description: The CH1-IA^d or CH1-IA^b cells were suspended in 2% BSA IMDM to 2×10^6 cells/ml. The cell suspension (100 μl) was added to peptide (100 μl) continuously diluted with serum-free IMDM. After incubating at 37° C. for 2 hr, 6 hr or 16 hr, the cells were washed and stained with FITC-streptavidin. The amount of peptide bound to the cells was measured by flow cytometry.

[12] = target: T2, ACE (Mus musculus, UniProt P09470); assay: ACE activity of antigen presenting cell (CH1-IA^d cells, Abz-FRK(Dnp)P-OH substrate); format: cell-based; conditions: 2.5 mM inhibitor, preincubated 37° C. 20 min; 10 μM Abz-FRK(Dnp)P-OH (FIG. 25)
T2 construct: endogenous in cells; host or cells: CH1-IA^d cells (living, in PBS)
T2 sequence (P09470 35-1312): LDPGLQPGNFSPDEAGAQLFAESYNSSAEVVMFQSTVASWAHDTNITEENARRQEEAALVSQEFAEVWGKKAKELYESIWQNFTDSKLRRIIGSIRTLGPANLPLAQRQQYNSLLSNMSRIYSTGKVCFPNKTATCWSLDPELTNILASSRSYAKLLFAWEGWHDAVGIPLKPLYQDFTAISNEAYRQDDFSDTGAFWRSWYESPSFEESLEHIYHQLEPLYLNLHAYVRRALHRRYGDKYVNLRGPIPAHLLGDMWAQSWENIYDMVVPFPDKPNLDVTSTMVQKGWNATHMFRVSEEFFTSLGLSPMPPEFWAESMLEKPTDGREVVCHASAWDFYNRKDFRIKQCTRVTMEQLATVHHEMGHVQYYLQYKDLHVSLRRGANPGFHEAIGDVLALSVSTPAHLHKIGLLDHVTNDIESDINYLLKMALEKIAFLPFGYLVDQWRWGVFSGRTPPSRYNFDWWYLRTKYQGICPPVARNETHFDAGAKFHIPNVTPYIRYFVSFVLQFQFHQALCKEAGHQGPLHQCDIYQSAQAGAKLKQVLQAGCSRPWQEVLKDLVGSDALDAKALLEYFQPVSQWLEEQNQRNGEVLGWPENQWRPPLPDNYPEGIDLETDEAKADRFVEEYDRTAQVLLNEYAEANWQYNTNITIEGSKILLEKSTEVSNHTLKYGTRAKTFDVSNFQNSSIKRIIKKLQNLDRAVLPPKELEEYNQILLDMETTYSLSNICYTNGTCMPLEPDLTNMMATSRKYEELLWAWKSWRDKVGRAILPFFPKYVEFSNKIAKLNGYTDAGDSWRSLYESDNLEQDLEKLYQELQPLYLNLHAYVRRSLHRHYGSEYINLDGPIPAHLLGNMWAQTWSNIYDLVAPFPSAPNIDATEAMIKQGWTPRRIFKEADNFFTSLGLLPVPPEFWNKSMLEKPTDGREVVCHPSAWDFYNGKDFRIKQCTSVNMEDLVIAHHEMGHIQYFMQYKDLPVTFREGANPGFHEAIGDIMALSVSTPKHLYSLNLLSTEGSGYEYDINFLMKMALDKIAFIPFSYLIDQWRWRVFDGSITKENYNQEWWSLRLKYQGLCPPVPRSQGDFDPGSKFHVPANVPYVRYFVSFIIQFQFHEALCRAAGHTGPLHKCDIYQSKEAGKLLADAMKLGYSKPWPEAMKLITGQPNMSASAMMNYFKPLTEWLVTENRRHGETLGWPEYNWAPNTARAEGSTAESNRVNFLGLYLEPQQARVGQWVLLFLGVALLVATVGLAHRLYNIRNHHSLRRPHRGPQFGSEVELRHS
Description: The ACE activity of the cell surface was measured by a modified method of the method described in Sabatini, R. et al., Anal Biochem 363: 255-262, 2007.
10 μM Abz-FRK(Dnp)P-OH (Sigma, St. Louis) was added and the cells were incubated at 37° C. for a given time. The reaction was quenched by placing them on ice. After centrifugation, fluorescence in the supernatant was measured at excitation wavelength of 320 nm and emission wavelength of 420 nm (FIG. 25).

[13] = tested on: FBL3 erythroleukemia cells; assay: In vivo antitumor activity in FBL3 tumor mice immunized with MHC class I and class II peptide; conditions: CBF1 mouse
Description: In the immunization experiment using mouse, the mouse was immunized with PbW332bPβ peptide as a Th-inducing peptide, and Db126 peptide as a CTL inducing peptide. As a tumor to be inoculated to the mouse, FBL3 erythroleukemia cell that highly expresses natural WT1 tumor antigen was used. FBL3 is a cell line that was transformed by infection with Friend leukemia virus, and has high possibility of also expressing virus antigen. In fact, when 2×10^7 FBL3 cells were intradermally injected on the back of the mouse, they grew into a solid tumor. However, the tumor had the tendency to shrink naturally after reaching the maximum size. […] Over time, the tumor sometimes started to grow rapidly in a long-term observation.
CBF1 mouse was immunized in advance by subcutaneous injection of 50 nmoles of Db126 peptide alone, or Db126 peptide and 50 nmoles of W332 peptide, to 4 sites in the top, bottom, left and right of the back. A vaccine of 5×10^7 Bordetella pertussis whole cells was added as an adjuvant to all immunization groups including control PBS inoculation group. The mouse was immunized 3 times (once per week) and then 2×10^7 FBL3 cells were subcutaneously injected to the back.

[14] = low concentration of pulsed peptide (0.1 μM or less) (FIG. 5)

ISQAVHAAHAEINEA [OVII]
undigested peptide left [1]: undigested peptide was not left | metabolised at 2 h [2]: 40%

PVLDFAPPGASAYGS [WA36, WT1 antigen-derived polypeptide]
induction of Th cell to the tumor antigen in in vivo immunization [3]: induction of Th cell was extremely difficult

ISQAVHAAHAEINEAGR (peptide inducing Th) [OVAII]
tumor control, Th peptide together with OVA-I [4]: enabled better control of the tumor; also recorded: completely disappeared in a part of the mice | expression of CD69 in DO11.10 cells ([5]; F2-IA^d cells pulsed with 0.1 μM peptide): induced expression of CD69 in DO11.10 cells to the same level as when OVA-loaded EL4 was incorporated | stimulation of DO11.10 cells by peptide-pulsed endothelial cells ([5]; F2-IA^d cells pulsed with peptide (FIG. 2)): could stimulate DO11.10 cells | induction of the expression of CD69 [5, 14]: induction of the expression of CD69 was hardly confirmed | migration of DO11.10 cells through F2-IA^d cell layer ([6]; high concentration of pulsed peptide (FIG. 5)): did not migrate by penetrating the F2-IA^d cell layer | migration of DO11.10 cells through F2-IA^d cell layer [6, 14]: actively migrated, and penetrated the F2-IA^d cell layer

PSISQAVHAAHAEINEA [POVII]
remaining at 16 h [7]: ~70% | digestion resistance to serum peptidases (in words) [8]: very strong enzyme resistance

C[C@H](CS)C(=O)N1CCC[C@H]1C(=O)O [captopril]
sensitization activity of OVII on addition of captopril ([9]; 2.5 mM captopril in medium (FIGS. 14, 15)): improved the sensitization activity of OVII to a level close to that of OVIIPA peptide | survival of DO11.10 cells ([9]; 5 mM captopril): cannot survive | inhibition of OVII peptide digestion / peptidase activity in serum [10]: suppressed in a concentration-dependent manner

ISQAVHAAHAEINEAR [OVII+]
binding activity to I-A^d molecule, effect of added Arg [11]: did not affect the binding activity to I-A^d molecule

c1cnc2c(c1)ccc1cccnc12 [o-phenanthrolin]
inhibition of OVII peptide digestion / peptidase activity in serum [10]: almost completely inhibited | inhibition of peptide degrading enzyme activity associated with living cells [12]: inhibited

KRYFKLSHLQMHSRKH [W332, WT1 antigen-derived polypeptide]
antitumor activity, Th-inducing peptide together with Db126 peptide ([13]; 50 nmoles each peptide s.c. with Wc adjuvant, 3 times, FBL3 tumor (FIG. 29)): stronger antitumor activity than Db126 single peptide immunization | long-term remaining tumor, Th-inducing peptide together with Db126 peptide ([13]; FBL3 tumor, vs Wc alone, Db126 or W332 single immunization): tends to shrink
